Laboratory results taken from patent publication US20240066155A1, “DUAL MODE RADIOTRACER AND -THERAPEUTICS” (priority 2021, published 2024).
Where “and” joins values, the source holds several entries; their conditions need not be identical. Identical values can stand only once.

Legend:
LNCaP cells = test: PSMA-mediated internalization into LNCaP cells; assay type: cell-based; conditions: 1 h, 37° C., percentage of reference ligand ([125I]BA)KuE, n=3
Experimental: (§1) Competitive binding studies were determined on LNCaP cells (1.5×10^5 cells in 1 mL/well) after incubation at 4° C. for 1 h, using (((S)-1-carboxy-5-(4-([^125I]iodo)benzamido)pentyl)carbamoyl)-L-glutamic acid ([^125I]BA)KuE; 0.2 nM/well) as reference radioligand (n=3). Internalization studies of the radiolabeled ligands (1.0 nM/well) were performed on LNCaP cells (1.25×10^5 cells in 1 mL/well) at 37° C. for 1 h and accompanied by ([^125I]BA)KuE (0.2 nM/well), as reference. Data were corrected for non-specific binding and normalized to the specific internalization observed for the reference (n=3). A detailed description of the experimental procedures was previously published (Wurzer A, et al. J Nucl Med. 2020; 61: 735-742).

PSMA = target: T1, PSMA (Homo sapiens, UniProt Q04609); test: Competitive binding studies on LNCaP cells vs ([125I]BA)KuE (affinity, IC50); conditions: 1 h, 4° C., natLu complexes
T1 construct: endogenous in cells; host or cells: LNCaP cells
T1 sequence (Q04609 whole entry): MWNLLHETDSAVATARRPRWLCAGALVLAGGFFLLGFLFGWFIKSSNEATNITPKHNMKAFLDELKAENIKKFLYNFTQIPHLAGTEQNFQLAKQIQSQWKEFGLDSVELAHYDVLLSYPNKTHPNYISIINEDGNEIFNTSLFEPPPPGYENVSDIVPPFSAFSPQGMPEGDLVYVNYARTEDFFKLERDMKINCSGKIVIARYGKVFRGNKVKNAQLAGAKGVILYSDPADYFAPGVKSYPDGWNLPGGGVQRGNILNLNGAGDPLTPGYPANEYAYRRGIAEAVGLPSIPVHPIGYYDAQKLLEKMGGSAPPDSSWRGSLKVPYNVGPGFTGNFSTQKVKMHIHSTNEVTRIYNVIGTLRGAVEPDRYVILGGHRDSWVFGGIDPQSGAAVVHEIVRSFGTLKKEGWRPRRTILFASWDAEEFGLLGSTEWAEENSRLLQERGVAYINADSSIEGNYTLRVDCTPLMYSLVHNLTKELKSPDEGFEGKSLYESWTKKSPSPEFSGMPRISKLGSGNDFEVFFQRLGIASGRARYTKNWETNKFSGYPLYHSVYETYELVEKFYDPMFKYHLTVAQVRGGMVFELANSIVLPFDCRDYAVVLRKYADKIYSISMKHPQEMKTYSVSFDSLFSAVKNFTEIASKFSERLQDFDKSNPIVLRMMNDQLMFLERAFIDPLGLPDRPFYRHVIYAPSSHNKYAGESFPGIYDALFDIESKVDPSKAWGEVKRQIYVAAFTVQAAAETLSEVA
Experimental: as §1

[1] = Lipophilicity, n-octanol/PBS (pH 7.4) distribution; assay type: physicochemical; conditions: n-octanol/PBS pH 7.4, 177Lu-labeled, n=6
Experimental: Approximately 1 MBq of the ^177Lu-labeled PSMA ligand was dissolved in 1 mL of a 1:1 mixture (v/v) of phosphate-buffered saline (PBS, pH 7.4) and n-octanol (n=6). After vigorous mixing of the suspension for 3 min, the vial was centrifuged at 15000×g for 3 min and 100 μL aliquots of both layers were measured in a γ-counter. Finally, the ratio of the radioactivity detected in the n-octanol sample and the PBS buffer was calculated and expressed as distribution ratio log D7.4.

human serum albumin = target: T2, human serum albumin (Homo sapiens, UniProt P02768); test: Binding to human serum albumin by albumin mediated size exclusion chromatography (AMSEC); assay type: in vitro ADME; conditions: size exclusion chromatography with HSA in the mobile phase, 177Lu-labeled
T2 construct: purchased Biowest, Nuaillé, France
T2 sequence (P02768 25-609): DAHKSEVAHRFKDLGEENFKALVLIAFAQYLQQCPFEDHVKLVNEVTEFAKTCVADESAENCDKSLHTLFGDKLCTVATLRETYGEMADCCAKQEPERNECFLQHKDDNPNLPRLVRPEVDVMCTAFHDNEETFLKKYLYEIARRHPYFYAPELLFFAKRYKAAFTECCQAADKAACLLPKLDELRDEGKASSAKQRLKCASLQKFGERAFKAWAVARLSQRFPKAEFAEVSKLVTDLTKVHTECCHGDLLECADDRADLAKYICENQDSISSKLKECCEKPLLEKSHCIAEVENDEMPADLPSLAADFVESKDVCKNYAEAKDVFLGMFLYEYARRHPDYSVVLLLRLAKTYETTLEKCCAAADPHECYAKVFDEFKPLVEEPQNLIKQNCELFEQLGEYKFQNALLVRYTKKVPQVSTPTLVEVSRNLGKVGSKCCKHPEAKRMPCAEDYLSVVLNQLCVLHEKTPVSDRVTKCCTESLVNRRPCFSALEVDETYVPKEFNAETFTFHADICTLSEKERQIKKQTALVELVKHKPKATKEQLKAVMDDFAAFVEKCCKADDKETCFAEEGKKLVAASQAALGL
Experimental: Binding of ^177Lu-labeled ligands to HSA was assessed by albumin mediated size exclusion chromatography (AMSEC). A gel filtration size exclusion column (Superdex 75 Increase 10/300 GL, GE Healthcare, Uppsala, Sweden) was used with HSA buffer at physiological concentration (700 μM, Biowest, Nuaillé, France) as mobile phase (constant flow rate of 0.8 mL/min at room temperature). For calibration purposes, a commercially available set of proteins (GE Healthcare, Buckinghamshire, UK) was used. Under these chromatographic conditions, the retention time of a radioligand (1.0 MBq, 10-20 GBq/μmol) depends on the extent of HSA/ligand interactions and thus, by means of the calibration with the aforementioned set of proteins, can be translated into an AMW (expressed in kDa) as a parameter allowing to quantify the extent of HSA binding. The detection window ranges between 2.3 kDa ([^18F]Fluoride; no HSA interaction) and 70.2 kDa (experimental molecular weight of HSA; maximum HSA interaction).

[2] = tested on: LNCaP tumor-bearing male CB-17 SCID mice; test: Ex vivo biodistribution in LNCaP tumor-bearing CB-17 SCID mice; conditions: 24 h p.i.
Experimental: All animal experiments were conducted in accordance with general animal welfare regulations in Germany (German animal protection act, as amended on 18 May 2018, Art. 141 G v. 29 Mar. 2017 I 626, approval no. 55.2-1-54-2532-71-13) and the institutional guidelines for the care and use of animals. LNCaP tumor xenografts were established in 6-8 weeks old male CB-17 SCID mice as described previously (Wurzer A, et al. J Nucl Med. 2020; 61: 735-742). Biodistribution Studies. The ^177Ludabeled PSMA inhibitors (2-5 MBq; 0.1 nmol) were injected under isoflurane anesthesia into the tail vein of LNCaP tumor-bearing male CB-17 SCID mice that were sacrificed 24 h post injection (p.i.) (n=4-5). Selected organs were removed, weighed, and measured in a counter. All rhPSMA ligands were evaluated in mice during the same time period (Q1/2020), whereas ^177Ludabeled PSMA-617 and PSMA I&T (Wirtz M, et al. EJNMMI Res. 2018; 8: 84) were assessed previously using the identical cell line, mouse model and experimental procedure.

[3] = n=5, mean of ratios per mouse, listed as [^177Lu]rhPSMA-10.1

With `O=C([O-])CN1CCN(CC(=O)[O-])CCN(CC(=O)NCC2CCC(C(=O)N[C@@H](Cc3ccc4ccccc4c3)C(=O)NCCCC[C@H](NC(=O)N[C@@H](CCC(=O)O)C(=O)O)C(=O)O)CC2)CCN(CC(=O)[O-])CC1.[177Lu+3]` (some centres unmarked) [[^177Lu]PSMA-617] the “Internalization [% IBA-KuE]” value (LNCaP cells) was 203±10 % IBA-KuE and 203.2 ± 10.1 % IBA-KuE, the IC50 (PSMA; n=3) was 3.27 ± 0.19 nM and the IC50 (PSMA; n=3, listed as [^natLu]PSMA-617) was 3.3 ± 0.2 nM. For the same molecule, the logD7.4 [1] was −4.1 ± 0.1 and the “MWapp [kDa] (apparent molecular weight, AMW; HSA binding)” value (“MWapp [kDa]” below) (human serum albumin) was 13.7 kDa.

In the case of `CC(C)(C)[Si](F)(c1ccc(C(=O)NC[C@H](NC(=O)CN2CCN(CC(=O)[O-])CCN(CC(=O)[O-])CCN(CC(=O)[O-])CC2)C(=O)N[C@H](CCCCNC(=O)CCC(=O)NCCC[C@@H](NC(=O)CC[C@H](NC(=O)N[C@@H](CCC(=O)O)C(=O)O)C(=O)O)C(=O)O)C(=O)O)cc1)C(C)(C)C.[Lu+3]` [[^177Lu, ^19F]rhPSMA-10.2], the “Tumor uptake” value ([2]; LNCaP tumor) is reported as 10.5±3.3 % ID/g, the “Internalization [% IBA-KuE]” value (LNCaP cells) is reported as 205.6 ± 8.3 % IBA-KuE and the IC50 (PSMA; n=3) is reported as 3.61 ± 0.59 nM. The logD7.4 [1] was −3.8 and −3.83 ± 0.10 and the “MWapp [kDa]” value (human serum albumin) was 21.8 kDa.

For `CC(C)(C)[Si](F)(c1ccc(C(=O)NC[C@@H](NC(=O)CC[C@H](C(=O)O)N2CCN(CC(=O)[O-])CCN(CC(=O)[O-])CCN(CC(=O)[O-])CC2)C(=O)N[C@H](CCCCNC(=O)CCC(=O)NCCC[C@@H](NC(=O)CC[C@H](NC(=O)N[C@@H](CCC(=O)O)C(=O)O)C(=O)O)C(=O)O)C(=O)O)cc1)C(C)(C)C.[Lu+3]` [[^177Lu, ^19F]rhPSMA-7.1], the “Internalization [% IBA-KuE]” value (LNCaP cells) was 137±6 % IBA-KuE and 137.4 ± 5.8 % IBA-KuE, the IC50 (PSMA; n=3) was 3.11 ± 0.64 nM and the logD7.4 [1] was −4.27 ± 0.24. The “MWapp [kDa]” value (human serum albumin) was 26.3 kDa.

With `CC(C)(C)[Si]([19F])(c1ccc(C(=O)NC[C@@H](NC(=O)CN2CCN(CC(=O)O)CCN(CC(=O)O)CCN(CC(=O)O)CC2)C(=O)N[C@H](CCCCNC(=O)CCC(=O)NCCC[C@@H](NC(=O)CC[C@H](NC(=O)N[C@@H](CCC(=O)O)C(=O)O)C(=O)O)C(=O)O)C(=O)O)cc1)C(C)(C)C` [[^177Lu, ^19F]rhPSMA-10.1, metal not drawn] the “Kidney uptake as percentage of that of [177Lu, 19F]rhPSMA-7.3” value [2] was 20%, the “Tumor-to-blood ratio, times higher compared to [177Lu, 19F]rhPSMA-7.3” value [2] was 2 times and the “Tumor-to-blood ratio, times higher compared to [177Lu]PSMA-617” value [2] was 7 times. The “Tumor uptake” value ([2]; LNCaP tumor) was 9.8±0.3 % ID/g, the Tumor-to-organ ratio adrenals ([2]; n=5, mean of ratios per mouse) was 137.57 and the Tumor-to-organ ratio blood ([2]; n=5, mean of ratios per mouse) was 9117. It also gave a Tumor-to-organ ratio bone ([2]; n=5, mean of ratios per mouse) of 389.88, a Tumor-to-organ ratio heart ([2]; n=5, mean of ratios per mouse) of 641.37 and a Tumor-to-organ ratio intestine ([2]; n=5, mean of ratios per mouse) of 250.87. The Tumor-to-organ ratio kidney ([2]; n=5, mean of ratios per mouse) was 5.5, the Tumor-to-organ ratio liver ([2]; n=5, mean of ratios per mouse) was 72.52 and the Tumor-to-organ ratio lung ([2]; n=5, mean of ratios per mouse) was 404.28. For the same molecule, the Tumor-to-organ ratio muscle ([2]; n=5, mean of ratios per mouse) was 2431.90, the Tumor-to-organ ratio pancreas ([2]; n=5, mean of ratios per mouse) was 797.72 and the “Tumor-to-organ ratio parotid gl.” value ([2]; n=5, mean of ratios per mouse) was 206.18. For the same molecule, the Tumor-to-organ ratio spleen ([2]; n=5, mean of ratios per mouse) was 63.66, the Tumor-to-organ ratio stomach ([2]; n=5, mean of ratios per mouse) was 351.52 and the “Tumor-to-organ ratio submand. gl.” value ([2]; n=5, mean of ratios per mouse) was 344.45. The Tumor-to-organ ratio blood [2, 3] was 9117.20, the Tumor-to-organ ratio kidney [2, 3] was 5.52 and the Activity accumulation adrenals ([2]; n=5, mean, complete dataset) was 0.0983 % ID/g. It also gave an Activity accumulation blood ([2]; n=5, mean, complete dataset) of 0.0019 % ID/g, an Activity accumulation bone ([2]; n=5, mean, complete dataset) of 0.0298 % ID/g and an Activity accumulation heart ([2]; n=5, mean, complete dataset) of 0.0192 % ID/g. For the same molecule, the Activity accumulation intestine ([2]; n=5, mean, complete dataset) was 0.0642 % ID/g, the Activity accumulation liver ([2]; n=5, mean, complete dataset) was 0.1631 % ID/g and the Activity accumulation lung ([2]; n=5, mean, complete dataset) was 0.0346 % ID/g. The Activity accumulation muscle ([2]; n=5, mean, complete dataset) was 0.0053 % ID/g, the Activity accumulation pancreas ([2]; n=5, mean, complete dataset) was 0.0155 % ID/g and the “Activity accumulation parotid gl.” value ([2]; n=5, mean, complete dataset) was 0.0551 % ID/g. For the same molecule, the Activity accumulation spleen ([2]; n=5, mean, complete dataset) was 0.1828 % ID/g, the Activity accumulation stomach ([2]; n=5, mean, complete dataset) was 0.0388 % ID/g and the “Activity accumulation submand. gl.” value ([2]; n=5, mean, complete dataset) was 0.0338 % ID/g. The Activity accumulation tumor ([2]; n=5, mean, complete dataset, LNCaP tumor) was 11.5563 % ID/g, the Activity accumulation kidney ([2]; n=5, mean, complete dataset, listed as [^177Lu]rhPSMA-10.1) was 2.4219 % ID/g and the “Internalization [% IBA-KuE]” value (LNCaP cells) was 177.4 ± 14.6 % IBA-KuE. The IC50 (PSMA; n=3) was 2.76 ± 0.51 nM, the logD7.4 [1] was −3.8 and −3.78 ± 0.06 and the “MWapp [kDa]” value (human serum albumin) was 25.1 kDa.
